From US20230118142A1, “AGENTS FOR USE IN THE TREATMENT OF TISSUE DAMAGE” (UCL BUSINESS LTD, priority 2020, published 2023)

How the values were obtained:
[1] = In vivo clearance of ligand; details: male, C57BL/6, mouse, serum, 0.5 mg; mice, intravenous; read-out: half-life (t1/2) of ligand in mouse circulation
Method: (i) Ligand (0.5 mg/animal) dissolved in PBS or saline (200 μl) was injected intravenously into the tail vein of six male; 23-27 week old wild-type C57BL/6 mice. Up to two blood samples plus a terminal sample per mouse were collected at each time point up to 180 minutes.
(ii) Serum was prepared and ˜200 ng of internal standard (either ^2H4-BPC6 or BPC9) added. Serum proteins were precipitated with 4 volumes of either ice cold methanol or acetonitrile. The supernatant was dried under vacuum and re-dissolved in 0.1% v/v aqueous formic acid. (iii) Samples were chromatographed on a Phenomenex Aqua column using a gradient of 0.1% v/v formic acid-60% v/v acetonitrile in formic acid, and the eluate passed into the positive ion source of a Quattro II triple quadrupole mass spectrometer. The MRM transitions used were m/z 449.3→390.2 and 453.→394.2 (BPC6) and m/z 477.3→418.3, […] (BPC8).
(iv) Ligand concentrations were measured against an extracted standard curve and were plotted using Sigmaplot (v14) and fitted to a 2-parameter exponential decay.

[2] = target: T1, CRP (Homo sapiens, UniProt P02741); assay: Roche immunoturbidimetric assay: pure CRP; assay type: binding; parameters: The final concentrations were 0.73 μM native pentameric CRP; from tissue
T1 sequence (P02741 19-224): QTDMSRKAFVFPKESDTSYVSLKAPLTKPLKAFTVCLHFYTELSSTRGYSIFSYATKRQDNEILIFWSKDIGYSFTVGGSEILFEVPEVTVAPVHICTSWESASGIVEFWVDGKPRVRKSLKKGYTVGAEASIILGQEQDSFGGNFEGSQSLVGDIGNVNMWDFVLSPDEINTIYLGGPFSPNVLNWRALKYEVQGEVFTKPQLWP
Method: (i) Human CRP at ˜90 μg/ml (3.9 μM monomer or 0.78 μM pentamer) in TC buffer was prepared from a stock solution; a 75 μl aliquot was used in the assay.
(ii) Compounds were prepared from stock solutions at up to 10 mM in TC (labelled S1). They were serially diluted with TC buffer (100 μl ligand+200 μl TC) to provide up to 9 dilutions, S2-S10. A TC buffer control (S0) was included in each assay.
(iii) A 15 μl volume of each ligand solution was incubated with 75 μl of CRP for 1 h at 37° C. The final concentrations were CRP pentamer=0.73 μM, ligands S1-S10=625-0.03 μM, corresponding to ligand:CRP pentamer ratios of 853-0.04.
(iv) CRP concentrations were measured by the Roche microparticle-enhanced immunoturbidimetric assay (10) on the COBAS MIRA autoanalyser, and results expressed as a percentage of the CRP control.
(v) Data were plotted using Sigmaplot (V14) using the 4 parameter logistic curve y=min+(max−min)/(1+(x/EC50)^−Hill slope) to calculate EC50.
(vii) All compounds were assayed in comparison with a highly purified preparation of BPC8, that was prepared by Carbogen AMCIS AG, dissolved in sterile water and diluted into TC buffer as required.
The immunoturbidimetric CRP assay on the Roche COBAS MIRA Plus autoanalyser, utilises two different sized microparticles that are covalently coupled with two different monoclonal antibodies, which recognise different CRP epitopes. The assay was developed by Roche for clinical measurement of CRP serum and plasma with high sensitivity and a very wide dynamic range. Serendipitously, one of the two antibodies binds to an epitope present on the ligand binding B-face of CRP. Thus, when the binding pocket is occupied by ligand and, especially, when the B-face is occluded by the B-face to B-face interaction of two native CRP pentamers produced by cross linking via our unique bivalent ligands, the assay fails to detect the CRP. In contrast, the CRP is all detected and assayed normally by other assays that disrupt the crosslinking and/or use antibodies which recognise different, non-occluded, epitopes. Inhibition of CRP recognition in the Roche assay is thus a convenient tool to monitor the efficacy and potency of complex formation between our unique ligands and CRP.

[3] = target: T1, CRP; parameters: The final concentrations were 0.73 μM native pentameric CRP; from tissue; details: rats undergoing coronary artery ligation and receiving human CRP; cited from earlier work
[4] = target: T1, CRP; assay: Rat acute myocardial infarction model (coronary artery ligation) with human CRP; assay type: in vivo; parameters: The final concentrations were 0.73 μM native pentameric CRP; from tissue; details: rats; ischaemia reperfusion and terminal coronary artery ligation; unpublished observations
Excerpt: Human CRP and activated rat complement were deposited in and around the infarct and the exacerbation of tissue damage was absolutely complement dependent. Similar observations were made in the middle cerebral artery occlusion model of stroke in rats (3).
The design of the first small molecule inhibitor of CRP binding for use in vivo, bis(phosphocholine)hexane (BPC6), enabled conclusive confirmation of the pathogenic role of human CRP in exacerbating tissue damage after ischaemic infarction (4).

[5] = target: T1, CRP; assay: In vivo clearance of CRP/ligand complexes generated in vivo in mice; parameters: The final concentrations were 0.73 μM native pentameric CRP; from tissue
Method: (i) Two groups of 8 wild-type C57BL/6 mice (male; 23-27 weeks old) were used: group 1 (control) and group 2 (treated).
(ii) Both groups of animals were given 200 μl of human CRP (5 mg/ml in azide-free TC buffer) subcutaneously on day 1.
(iii) On day 2 (+18 h), control animals were given a 200 μl intravenous bolus of TC buffer. Treated animals were given a 200 μl iv bolus of ligand (prepared at 5 mg/ml in TC buffer).
(iv) One timed blood sample and a terminal blood sample were collected from each mouse into heparinised tubes and weighed. This generated data in quadruplicate at 4 time points, normally 30, 60, 120 and 360 minutes.
(v) ^125I radiolabel was measured (Perkin Elmer Wizard; protocol #1) in whole blood to quantify total CRP. In some cases, electroimmunoassay as above was also used to determine total CRP concentration.
(vi) Plasma was prepared and free CRP determined by Roche immunoassay.
Subcutaneous injection of human CRP provided circulating CRP concentrations with which to test for effects of our ligands in vivo. (Table 4).

[6] = target: T1, CRP; assay: Immobilised phosphocholine plate assay (125I-CRP binding); parameters: The final concentrations were 0.73 μM native pentameric CRP; from tissue; details: read-out: IC50 for inhibition of 125I-CRP binding to immobilised phosphocholine
Method: (i) Phosphocholine was immobilised on Greiner NHS-activated microtitre plates by incubation with 4-aminophenyl-1-phosphocholine. Remaining active sites were blocked by incubation with 4% w/v BSA in TC buffer (TCB).
(ii) Human CRP at 1 μg/ml in TC buffer was spiked with ^125I-labelled CRP to provide 10^6 cpm/ml.
(iii) Compounds were prepared from up to 10 mM stock solutions by dilution in TC buffer to 0.5 mM (labelled S1). Serial dilutions were prepared by diluting 100 μl ligand solution with 200 μl TC buffer (S2-S10). A ligand-free control was also used (SO, TC only).
(iv) A 100 μl volume of CRP solution was incubated with 10 μl of each compound (S1-S10, SO) for 1 h at room temperature without stirring, to provide final ligand concentrations across the range 45.5 μM-6.9 nM with a ligand:CRP monomer molar ratio of 1151-0.06. In some cases, single fixed ligand concentrations were also assayed in comparison with PC.
(v) A 100 μl volume of each CRP-ligand mixture was added to the plate wells and incubated for 2 h at room temperature. Solutions were then discarded and the plates washed with TCB buffer. Bound radioactivity was measured (1 min counts) using a gamma counter (Perkin Elmer Wizard 2470).
(vi) Data were plotted with Sigmaplot v14 software using the 4-parameter logistic curve y=min+(max−min)/(1+(x/EC50)^−Hill slope) to calculate IC50.

[7] = target: T1, CRP; assay: Size exclusion chromatography of CRP/ligand cross linking; assay type: binding; parameters: The final concentrations were 0.73 μM native pentameric CRP; from tissue
Method: (i) Ligands were diluted to 0.5 mM in TC buffer from up to 10 mM stocks. Serial dilutions were prepared as required. […]
(iii) The complex was chromatographed on a Superdex200 column (10/300 GL; 24 ml bed volume), connected to the ÅKTA100 Explorer HPLC system, and equilibrated and eluted in TC buffer at 0.5 ml/min. Eluates were monitored at 280 nm and fractions (0.5 ml) collected as required.
Size exclusion chromatography on a Superdex 200 column equilibrated and eluted with TC buffer pH 8.0, and calibrated with standard globular marker proteins and with human CRP, the native CRP pentamer (Mr 115 kDa) eluted at 13.9 ml (range 13.7-14.0 ml, n=10).

SMILES	half-life [1]	IC50 ([2]; pure CRP in TC buffer, read-out: IC50 (μM), SD, inhibition of Roche CRP immunoreactivity)	Effect on increased tissue damage caused by human CRP [3]	Protective effect against human CRP pathogenicity [4]	Time by which Roche value was the same as in control mice ([5]; i.v. bolus 1 mg 18 h after s.c. CRP)	Effect on detection of circulating CRP in the Roche assay ([5]; i.v. bolus 18 h after s.c. CRP (1 mg))	excess of ligand over CRP pentamer causing 50% reduction of immunoreactivity [2]	IC50 [6]	Stable to rechromatography ([7]; CRP/ligand complex re-chromatographed in absence of free ligand)	CRP elution volume from Superdex 200 after pre-incubation with ligand ([7]; native CRP pentamer elutes at 13.9 ml)
C[N+](C)(C)CCOP(=O)([O-])OCCCCCCOP(=O)([O-])OCC[N+](C)(C)C [BPC6, bis(phosphocholine)hexane]	16.1 min	4.7 µM	completely abrogated the increased damage							
C[N+](C)(C)CCOP(=O)(O)OCCCCCCCCOP(=O)(O)OCC[N+](C)(C)C [BPC8, 1,8-bis(phosphocholine)-octane, reference compound]	15.4 min			same protective effect	≤ 3 h	immediately blocked detection of circulating CRP	2.5 fold	2200 nM	No	12.6 mL
